Laboratory results taken from patent publication US20230107216A1, “PANTETHEINE DERIVATIVES AND USES THEREOF” (Comet Therapeutics, Inc., priority 2018, published 2023).

How the values were obtained:
[1] = tested on: Vitamin B12 deficiency (Cbl−/− diet) mouse model; test: Vitamin B12 deficiency mouse model: bone marrow immunophenotyping (M1/M2 macrophages); type: in vivo, C57BL/6 mice; conditions: 50 mpk IP BID; for Ratio of M1/M2 macrophages in bone marrow: mice on the cbl−/− diet (untreated: M1/M2 ratio of 6); for Ratio of M1/M2 macrophages compared with mice on a control diet: mice on the cbl−/− diet
Experimental: (§1) A vitamin B12 deficiency mouse model was used following the methods described at Ghosh et al 2016.
(§2) Animal maintenance and feeding. Female weanling C57BL/6 mice (n=65) were obtained at 3 weeks of age from Shanghai Sippe-Bk Lab Animal Co., Ltd. The mice were housed in a SPF environment and maintained at 20° C.±6, under standard lighting conditions (12-h light/dark cycle). Animals were divided into 5 animals per cage during modelling, and 3 animals per cage during compound test. The 3-week old mice were fed ad libitum with either AIN-76A control diet (D10001i) designated as control diet group or the same diet deficient in vitamin B12 (D07012902) with pectin as the source of fiber (designated as Cbl−/− cobalamin deficient) referred to as B12R+ by Ghosh et al. (Research Diets Inc., New Brunswick, N.J., USA). Cobalamin-restricted diet with pectin (B12R+) contained 50 g pectin/kg diet, because it has been shown earlier that pectin binds the intrinsic factor in the intestine and makes vitamin B12 less bioavailable. The control diet contained 50 g cellulose/kg diet as the fiber source instead of pectin. The mice also had ad libitum access to deionized water. Food intake and body weights were recorded every week.
Compound treatment. After 6 weeks of feeding on either control or Cbl−/− diet, 9-week-old mice on Cbl−/− diet were randomly assigned into 5 groups with 3 mice per group per treatment. Mice in each group were IP treated with vehicle (1% HPBCD, Sigma, H107) or were dosed at 50 mpk with Compound 1 or Compound 410 BID. One group of mice were sacrificed at 24h after the first dose. 2nd group of mice were sacrificed at 72h after the first dose. 3rd group of mice were sacrificed after 168h (i.e 7 days) after the first dose. 4th group of mice were fasted for 12h before sacrificing after 72h of the first dose. 5th group of mice were first fasted for 12h before any vehicle or compound treatment and sacrificed after 72h after the first dose.
Tissue and sample collection. At above specified timepoints, mice were weighed and anesthetized with CO2 before sample collection. For blood collection, the chest was opened to expose the heart. Up to 300 μl blood was drawn from the left ventricle with 1 ml syringe rinsed with EDTA-Na and dispensed into a K3EDTA mini collect tube (Greiner Bio-One) for haematology analysis. Then a new syringe was used to draw remaining blood from heart as much as possible. Serum was isolated by centrifugation at 5000 rpm for 10 min, aliquoted and kept at −80° C. until further use. For tissue collection after blood was drawn, mice were perfused with ice cold saline from the left ventricle. Heart, liver, kidney, spleen, brain was weighed after isolation. Then left leg was kept in ice cold PBS and bone marrow was isolated for further immunophenotype analysis. […]

[2] = tested on: Vitamin B12 deficiency (Cbl−/− diet) mouse model; test: Vitamin B12 deficiency mouse model: liver protein determination (ELISA, TNFα, protein carbonyls); type: in vivo, C57BL/6 mice
Experimental: as §1, §2
Compound treatment. After 6 weeks of feeding on either control or Cbl−/− diet, 9-week-old mice on Cbl−/− diet were randomly assigned into 5 groups with 3 mice per group per treatment. […]

[3] = tested on: Vitamin B12 deficiency (Cbl−/− diet) mouse model; test: Vitamin B12 deficiency mouse model: muscle strength by grip test; type: in vivo, mice; conditions: after 17 days of 50 mpk QD, IP
Experimental: Mice at 18 weeks of age were either fed on control diet (n=12 mice) or cbl−/− diet (n=30 mice) for 15 weeks. Grip strength test was measured by using a Grip Strength test meter for mice and rats (Jiangsu, SANS Biological Technology, CO. LTD, SA417) and recorded as day zero grip strength analysis. Briefly, machine was turned on (push peak) and calibrated to zero. Front leg strength was measured by pulling the mice away from the bar by holding the tail of the mice. Total 5 values were measured for each mouse. After the measurement the cbl−/− mice were divided into three groups of N=10 mice per group. Each group received either vehicle (0.1% saline) or Compound 410 or Compound 500, IP at the dose of 50 mpk QD. […]

| SMILES | Ratio of M1/M2 macrophages in bone marrow [1] | Ratio of M1/M2 macrophages compared with mice on a control diet [1] | Protein Carbonyl in liver homogenates ([2]; mice on the cbl−/− diet (untreated 25.4 pg/ug; control diet 16.6 pg/ug)) [pg/µg] | TNF-α in liver homogenates ([2]; mice on the cbl−/− diet (untreated 171.8 pg/ug; control diet 121.46 pg/ug)) [pg/µg] | Grip strength ([3]; mice on the cbl−/− diet (36.5 g; control diet 59 g)) [g] | Recovery of grip strength ([3]; mice on the cbl−/− diet) |
| --- | --- | --- | --- | --- | --- | --- |
| CC(C)(CO)[C@@H](O)C(=O)NCCC(=O)NCCSC(=O)CCC(=O)O [Compound 1, (R)-4-((2-(3-(2,4-dihydroxy-3,3-dimethylbutanamido)propanamido)ethyl)thio)-4-oxobutanoic acid] | 3.967 | statistically indistinguishable | – | – | – | – |
| COC(=O)CC(C(C)=O)C(=O)SCCNC(=O)CCNC(=O)[C@H](O)C(C)(C)CO (some centres unmarked) [Compound 410] | 3.87 | statistically indistinguishable | 11.1 | 62 | 57.7 | recovered grip strength to near the level of mice on the control diet |
